{"source": "paper PMC3090393", "about": "“New Noncovalent Inhibitors of Penicillin-Binding Proteins from Penicillin-Resistant Bacteria” (PLoS ONE, 2011)", "key": {"[1]": {"tested_on": "all of the Staphylococcus aureus tested strains", "assay": "In-vitro antibacterial activity (MIC), Staphylococcus aureus strains", "type": "cell-based", "method": "(§1) Determination of the antibacterial activities was carried out on microtiter plates, in 200 µL (final volume) of Müeller-Hinton Broth (MHB), following EUCAST (European Committee on Antimicrobial Susceptibility testing)/CLSI (Clinical and Laboratory Standard Institute) recommended procedures, [25]. The compounds were solubilized in MHB, just before use. Inocula were prepared for each strain by resuspending isolated colonies from 18 h cultured plates. Equivalents of 0.5 Mac Farland turbidity standards (approximately 1×10^8 CFU mL^−1) were prepared in saline solution ([…]) and then diluted 200-fold in MBH."}, "PBP2a": {"molecular_target": "T1, PBP2a (Staphylococcus aureus, UniProt P07944)", "T1 construct": "made in house", "T1 sequence (P07944 whole entry)": "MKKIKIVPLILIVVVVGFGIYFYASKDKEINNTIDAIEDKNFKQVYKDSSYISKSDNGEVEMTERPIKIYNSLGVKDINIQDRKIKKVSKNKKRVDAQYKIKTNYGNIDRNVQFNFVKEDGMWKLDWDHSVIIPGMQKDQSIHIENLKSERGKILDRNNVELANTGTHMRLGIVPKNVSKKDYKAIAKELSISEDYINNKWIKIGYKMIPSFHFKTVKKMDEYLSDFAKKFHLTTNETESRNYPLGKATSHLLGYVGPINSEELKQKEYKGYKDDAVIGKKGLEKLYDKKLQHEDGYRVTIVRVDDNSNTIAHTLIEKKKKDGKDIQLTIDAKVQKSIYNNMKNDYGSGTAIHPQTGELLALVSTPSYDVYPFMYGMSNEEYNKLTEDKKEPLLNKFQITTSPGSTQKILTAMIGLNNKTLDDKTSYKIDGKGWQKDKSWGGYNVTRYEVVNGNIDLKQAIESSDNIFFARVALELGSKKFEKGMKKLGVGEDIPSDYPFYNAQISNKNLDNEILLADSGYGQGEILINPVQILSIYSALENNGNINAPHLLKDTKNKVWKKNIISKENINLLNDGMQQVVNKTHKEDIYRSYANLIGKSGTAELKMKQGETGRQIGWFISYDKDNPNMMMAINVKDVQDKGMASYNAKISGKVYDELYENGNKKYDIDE", "assay": "PBP2a enzymatic inhibition assay (fluorescein-labeled ampicillin, residual penicillin binding activity)", "type": "biochemical, Staphylococcus aureus ATCC 43300", "method": "(§2) PBP2a from Staphylococcus aureus ATCC 43300 and PBP5fm from Enterococcus faecium D63r were overproduced and purified as described previously, [18].\n(§3) Each of the purified PBPs (2.5 µM) were first incubated with 1 mM potential inhibitor in 100 mM phosphate buffer, 0.01% Triton X-100[19], pH 7, for 4 h at 30°C. Then, 25 µM fluorescein-labeled ampicillin[20] was added to detect the residual penicillin binding activity (RA). The samples were further incubated for 30 min at 37°C in a total volume of 20 µL. Denaturation buffer was added (0.1 M Tris/HCl, pH 6.8, containing 25% glycerol, 2% SDS, 20% β-mercaptoethanol and 0.02% bromophenol blue) and the samples were heated to 100°C for 1 min. The samples were then loaded onto a 10% SDS-acrilamide gel (10×7 cm) and electrophoresis was performed for 45 min at 180 V (12 mA). Detection and quantification of the RAs were with Molecular Image FX equipment and Quantity One software (BioRad, Hercules, CA, USA). Three independent experiments were carried out for each inhibitor."}, "[2]": {"tested_on": "S. aureus ATCC43300 resistant strain", "assay": "Killing curves experiments", "type": "cell-based, Staphylococcus aureus", "details": "concentration equivalent to 4 times the MIC; data not shown"}, "PBP5fm": {"molecular_target": "PBP5fm (Enterococcus faecium, UniProt Q47759)", "sequence (Q47759 entry or part of it)": "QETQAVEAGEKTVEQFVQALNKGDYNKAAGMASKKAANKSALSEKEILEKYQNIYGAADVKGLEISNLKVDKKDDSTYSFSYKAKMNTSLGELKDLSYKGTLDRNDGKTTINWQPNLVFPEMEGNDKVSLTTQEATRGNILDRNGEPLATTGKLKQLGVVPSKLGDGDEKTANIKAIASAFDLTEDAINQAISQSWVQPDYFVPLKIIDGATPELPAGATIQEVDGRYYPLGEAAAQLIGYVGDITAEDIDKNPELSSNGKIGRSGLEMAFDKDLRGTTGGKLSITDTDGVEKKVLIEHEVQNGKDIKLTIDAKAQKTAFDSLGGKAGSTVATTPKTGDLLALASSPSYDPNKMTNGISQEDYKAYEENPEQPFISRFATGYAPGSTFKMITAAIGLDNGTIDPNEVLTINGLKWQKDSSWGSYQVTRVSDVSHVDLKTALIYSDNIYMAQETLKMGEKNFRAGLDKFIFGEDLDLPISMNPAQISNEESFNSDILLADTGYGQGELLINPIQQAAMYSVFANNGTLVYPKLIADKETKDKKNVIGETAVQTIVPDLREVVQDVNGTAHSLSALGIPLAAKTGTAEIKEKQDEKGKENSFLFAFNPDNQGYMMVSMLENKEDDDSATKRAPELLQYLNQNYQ", "assay": "PBP5fm enzymatic inhibition assay (fluorescein-labeled ampicillin, residual penicillin binding activity)", "type": "biochemical, Enterococcus faecium D63r", "details": "4 h; residual activity of the enzyme at 1 mM inhibitor; 0.01% Triton X-100; read-out: PBP5fm RA [%]", "method": "as §2, §3"}, "[3]": {"tested_on": "protoplasts of S. aureus ATCC43300 resistant strain", "assay": "Effect on protoplasts", "type": "cell-based, Staphylococcus aureus", "details": "concentration equivalent to 4 times the MIC; after ten minutes", "method": "The importance of this hit compound is further underlined by its very promising minimum inhibitory concentrations (MICs) against several Gram-positive bacterial strains, including MRSA (32 µg/mL). […] This assumption is confirmed by the fact that for S. aureus ATCC25923 strain, sensitive to penicillin and devoid of PBP2a, compound 1 has the same MIC value as for the other two resistant S. aureus strains (Table 2) where PBP2a is present. To better understand the antibacterial activity of compound 1, we performed an experiment to evaluate the effect of compound 1 on the protoplasts of S. aureus ATCC43300 resistant strain, at a concentration equivalent to 4 times the MIC. […] Further analysis is needed to better understand the precise mode of action of these inhibitors on the bacterial cell."}, "[4]": {"tested_on": "Citrobacter freundii ATCC 8090", "assay": "In-vitro antibacterial activity (MIC, broth microdilution)", "type": "cell-based", "details": "ATCC8090", "method": "as §1"}, "[5]": {"tested_on": "Streptococcus pneumoniae ATCC 49619", "assay": "In-vitro antibacterial activity (MIC, broth microdilution)", "type": "cell-based", "details": "ATCC49619", "method": "as §1"}, "[6]": {"tested_on": "Staphylococcus aureus ATCC 25923", "assay": "In-vitro antibacterial activity (MIC, broth microdilution)", "type": "cell-based", "details": "ATCC25923", "method": "as §1"}, "[7]": {"tested_on": "Listeria monocytogenes ATCC 14780", "assay": "In-vitro antibacterial activity (MIC, broth microdilution)", "type": "cell-based", "details": "ATCC14780", "method": "as §1"}, "[8]": {"tested_on": "Listeria innocua ATCC 33090", "assay": "In-vitro antibacterial activity (MIC, broth microdilution)", "type": "cell-based", "details": "ATCC33090", "method": "as §1"}, "[9]": {"tested_on": "Micrococcus luteus ATCC 9341", "assay": "In-vitro antibacterial activity (MIC, broth microdilution)", "type": "cell-based", "details": "ATCC9341", "method": "as §1"}, "[10]": {"tested_on": "Streptococcus pneumoniae D39", "assay": "In-vitro antibacterial activity (MIC, broth microdilution)", "type": "cell-based", "method": "as §1"}, "[11]": {"tested_on": "Streptococcus pneumoniae ATCC 33400", "assay": "In-vitro antibacterial activity (MIC, broth microdilution)", "type": "cell-based", "details": "ATCC33400", "method": "as §1"}, "[12]": {"tested_on": "Proteus mirabilis ATCC 29936", "assay": "In-vitro antibacterial activity (MIC, broth microdilution)", "type": "cell-based", "details": "ATCC29936", "method": "as §1"}, "[13]": {"tested_on": "Staphylococcus aureus ATCC 43300 (MRSA)", "assay": "In-vitro antibacterial activity (MIC, broth microdilution)", "type": "cell-based", "method": "as §1"}, "[14]": {"tested_on": "Staphylococcus aureus mp 1 (inducible MRSA)", "assay": "In-vitro antibacterial activity (MIC, broth microdilution)", "type": "cell-based", "method": "as §1"}, "[15]": {"tested_on": "Enterococcus hirae ATCC 8790", "assay": "In-vitro antibacterial activity (MIC, broth microdilution)", "type": "cell-based", "details": "ATCC8790", "method": "as §1"}, "[16]": {"tested_on": "Enterococcus faecium ATCC 19434", "assay": "In-vitro antibacterial activity (MIC, broth microdilution)", "type": "cell-based", "details": "ATCC19434", "method": "as §1"}, "[17]": {"tested_on": "Escherichia coli ATCC 8739", "assay": "In-vitro antibacterial activity (MIC, broth microdilution)", "type": "cell-based", "details": "ATCC8739", "method": "as §1"}, "[18]": {"tested_on": "Enterococcus faecalis ATCC 29212", "assay": "In-vitro antibacterial activity (MIC, broth microdilution)", "type": "cell-based", "details": "ATCC29212", "method": "as §1"}, "[19]": {"tested_on": "Klebsiella pneumoniae ATCC 13883", "assay": "In-vitro antibacterial activity (MIC, broth microdilution)", "type": "cell-based", "details": "ATCC13883", "method": "as §1"}, "[20]": {"tested_on": "Staphylococcus epidermidis ATCC 12228", "assay": "In-vitro antibacterial activity (MIC, broth microdilution)", "type": "cell-based", "details": "ATCC12228", "method": "as §1"}, "[21]": {"tested_on": "Pseudomonas aeruginosa ATCC 27853", "assay": "In-vitro antibacterial activity (MIC, broth microdilution)", "type": "cell-based", "details": "ATCC27853", "method": "as §1"}, "[22]": {"tested_on": "Enterococcus faecalis ATCC 7937", "assay": "In-vitro antibacterial activity (MIC, broth microdilution)", "type": "cell-based", "details": "ATCC7937", "method": "as §1"}, "[23]": {"tested_on": "Bacillus subtilis ATCC 6633", "assay": "In-vitro antibacterial activity (MIC, broth microdilution)", "type": "cell-based", "details": "ATCC6633", "method": "as §1"}}, "note": "Like-named read-outs stand apart in the source and are kept apart here."}
{"smiles": "CCCCOc1ccc2cc(S(=O)(=O)Nc3ccccc3C(=O)O)ccc2c1", "note": "[compound 1, 2-(6-butoxynaphthalene-2-sulfonamido)benzoic acid]", "values": [{"measurement": "MIC", "setting": "[1]; MRSA, read-out: minimum inhibitory concentration (MIC) against MRSA", "value": 32, "unit": "µg/mL"}, {"measurement": "MIC", "setting": "[1]; all S. aureus tested strains, converted from µg/ml, read-out: MIC value for all of the Staphylococcus aureus tested strains", "value": 80, "unit": "µM"}, {"measurement": "MIC", "setting": "[1]; all S. aureus tested strains, read-out: MIC value for all of the Staphylococcus aureus tested strains", "value": 32, "unit": "µg/mL"}, {"measurement": "remaining activity at 1000 µM", "setting": "PBP2a; 4 h, residual activity of the enzyme at 1 mM inhibitor, 0.01% Triton X-100, mean of three experiments, read-out: PBP2a RA [%]", "value": 0, "unit": "%"}, {"measurement": "IC50", "setting": "PBP2a; in the presence of 0.01% Triton X-100", "value": 97, "unit": "µM"}, {"measurement": "killing curves, bacterial count", "setting": "[2]", "value": "no viable cells were observed after 120 min"}, {"measurement": "activity at 1000 µM", "setting": "PBP5fm", "value": 100, "unit": "%"}, {"measurement": "effect on protoplasts", "setting": "[3]", "value": "complete lysis of protoplasts"}, {"measurement": "MIC", "setting": "[4]", "value": "> 1020", "unit": "µg/mL"}, {"measurement": "MIC", "setting": "[5]", "value": 1, "unit": "µg/mL"}, {"measurement": "MIC", "setting": "[6]", "value": 32, "unit": "µg/mL"}, {"measurement": "MIC", "setting": "[7]", "value": 16, "unit": "µg/mL"}, {"measurement": "MIC", "setting": "[8]", "value": 16, "unit": "µg/mL"}, {"measurement": "MIC", "setting": "[9]", "value": 2, "unit": "µg/mL"}, {"measurement": "MIC", "setting": "[10]", "value": 1, "unit": "µg/mL"}, {"measurement": "MIC", "setting": "[11]", "value": 1, "unit": "µg/mL"}, {"measurement": "MIC", "setting": "[12]", "value": "> 1020", "unit": "µg/mL"}, {"measurement": "MIC", "setting": "[13]", "value": 32, "unit": "µg/mL"}, {"measurement": "MIC", "setting": "[14]", "value": 32, "unit": "µg/mL"}, {"measurement": "MIC", "setting": "[15]", "value": 16, "unit": "µg/mL"}, {"measurement": "MIC", "setting": "[16]", "value": 64, "unit": "µg/mL"}, {"measurement": "MIC", "setting": "[17]", "value": "> 1020", "unit": "µg/mL"}, {"measurement": "MIC", "setting": "[18]", "value": 32, "unit": "µg/mL"}, {"measurement": "MIC", "setting": "[19]", "value": "> 1020", "unit": "µg/mL"}, {"measurement": "MIC", "setting": "[20]", "value": 32, "unit": "µg/mL"}, {"measurement": "MIC", "setting": "[21]", "value": "> 1020", "unit": "µg/mL"}, {"measurement": "MIC", "setting": "[22]", "value": 16, "unit": "µg/mL"}, {"measurement": "MIC", "setting": "[23]", "value": 2, "unit": "µg/mL"}]}
